How the values were obtained:
[1] = target: recombinant human NF-kappaB-inducing kinase (NIK/MAP3K14) (Homo sapiens (Human), UniProt Q99558); assay: Inhibition of auto-phosphorylation of recombinant human NIK/MAP3K14 (AlphaScreen); format: biochemical; conditions: NIK auto-phosphorylation, 5 μM ATP, 1 nM NIK, 2 h at 25° C.; average of values
Description: Inhibition of auto-phosphorylation of recombinant human NF-kappaB-inducing kinase (NIK/MAP3K14) activity (AlphaScreen®)
NIK/MAP3K14 auto-phosphorylation activity was measured using the AlphaScreen® (αscreen) format (Perkin Elmer). All compounds tested were dissolved in dimethyl sulfoxide (DMSO) and further dilutions were made in assay buffer. The final DMSO concentration was 0.7% (v/v) in assays. The assay buffer was 50 mM Tris pH 7.5 containing 1 mM EGTA (ethylene glycol tetraacetic acid), 1 mM DTT (dithiothreitol), 0.1 mM Na3VO4, 5 mM MgCl2, and 0.01% Tween® 20. The assays were carried out in 384 well Proxiplates (Perkin Elmer). The incubations consisted of the compound, 5 μM Adenosine-5′-triphosphate (ATP), and 1 nM NIK/MAP3K14. Incubations were initiated by the addition of GST-tagged NIK/MAP3K14 enzyme, carried out for 2 h at 25° C. and terminated by addition of stop buffer containing anti-phospho-IKK Ser176/180 antibody. Protein A Acceptor and Glutathione-Donor beads were added before reading using an EnVision® Multilabel Plate Reader (Perkin Elmer). […] IC50's were determined by fitting a sigmoidal curve to % inhibition of control versus Log10 compound concentration.

[2] = system: p-IKKα levels in L363 (NIK translocated multiple myeloma) cells; assay: Effect of compounds on p-IKKα levels in L363 cells (AlphaLISA SureFire Ultra); format: cell-based, human; conditions: Homo sapiens, L-363, 6 h, BAFF stimulated, MG132, 6 h, average of values, read-out: Assay 2 IC50
Description: Effect of Compounds on p-IKKα Levels in L363 (NIK Translocated Multiple Myeloma) Cells
All compounds tested were dissolved and serially diluted in DMSO, 1:3 dilution for 11 points in an Echo compatible plate. 100% DMSO was added to columns 12 and 24 of the plate to serve as high and low signal controls. This compound plate was used to spot 20 nL of compound or DMSO into a Greiner 384 well TC plate (781080). The final DMSO concentration was 0.3% (v/v) in cell assays. Human L363 cells (ATCC) were cultured in RPM11640 medium supplemented with GlutaMax, non-essential amino acids, sodium pyruvate and 10% fetal bovine serum. Cells were routinely maintained at densities of […] at 37° C. in a humidified 5% CO2 atmosphere incubator. Cells were passaged twice a week splitting back to obtain the low density. The day before the assay, cells were washed twice in HBSS (Hank's Balanced Salt Solution), resuspended in Dulbecco's Modified Eagle Medium (DMEM)+0.5% IgG and protease free BSA (Jackson Immuno Research Laboratories), +/−250 ng/ml recombinant human B-cell activating factor (BAFF/BLyS/TNFSF13B) and incubated overnight at 37° C. in a humidified 5% CO2 atmosphere (bulk stimulation with or without BAFF). The next day, the cell concentration was adjusted to 1×10^7 cells/ml in DMEM+/−250 ng/ml BAFF+/−10 μM MG132 and plated at 10 μl/well into compound or DMSO spotted 384 well TC plates. Seeded cells were incubated at 37° C. in a humidified 5% CO2 atmosphere for 6 h. After 6 h, the plates were removed from the incubator and cell lysis was achieved by the addition of 2.5 μl 5× lysis buffer containing protease and phosphatase inhibitors, followed by shaking on a plate shaker at room temperature for 15 min. At the end of this incubation, lysed cells were sequentially treated and incubated with acceptor and donor bead mixes according to the manufacturer's protocol for a 1 plate/2-incubation suspension cell assay (AlphaLISA SureFire Ultra p-IKKa (Ser 176/180) Assay Kit (Perkin Elmer). Plates were read using an EnVision® Multilabel Plate Reader (Perkin Elmer). Within an experiment, a concentration response curve for each compound was run in duplicate. The signal obtained in the test wells was normalized using high signal (BAFF stimulated cells, DMSO, MG132) and low signal (unstimulated cells, DMSO) controls. To determine the IC50, a sigmoidal curve was fitted to the plot of % inhibition versus Log10 compound concentration.

Chain of recombinant human NF-kappaB-inducing kinase (NIK/MAP3K14) (Q99558 whole entry): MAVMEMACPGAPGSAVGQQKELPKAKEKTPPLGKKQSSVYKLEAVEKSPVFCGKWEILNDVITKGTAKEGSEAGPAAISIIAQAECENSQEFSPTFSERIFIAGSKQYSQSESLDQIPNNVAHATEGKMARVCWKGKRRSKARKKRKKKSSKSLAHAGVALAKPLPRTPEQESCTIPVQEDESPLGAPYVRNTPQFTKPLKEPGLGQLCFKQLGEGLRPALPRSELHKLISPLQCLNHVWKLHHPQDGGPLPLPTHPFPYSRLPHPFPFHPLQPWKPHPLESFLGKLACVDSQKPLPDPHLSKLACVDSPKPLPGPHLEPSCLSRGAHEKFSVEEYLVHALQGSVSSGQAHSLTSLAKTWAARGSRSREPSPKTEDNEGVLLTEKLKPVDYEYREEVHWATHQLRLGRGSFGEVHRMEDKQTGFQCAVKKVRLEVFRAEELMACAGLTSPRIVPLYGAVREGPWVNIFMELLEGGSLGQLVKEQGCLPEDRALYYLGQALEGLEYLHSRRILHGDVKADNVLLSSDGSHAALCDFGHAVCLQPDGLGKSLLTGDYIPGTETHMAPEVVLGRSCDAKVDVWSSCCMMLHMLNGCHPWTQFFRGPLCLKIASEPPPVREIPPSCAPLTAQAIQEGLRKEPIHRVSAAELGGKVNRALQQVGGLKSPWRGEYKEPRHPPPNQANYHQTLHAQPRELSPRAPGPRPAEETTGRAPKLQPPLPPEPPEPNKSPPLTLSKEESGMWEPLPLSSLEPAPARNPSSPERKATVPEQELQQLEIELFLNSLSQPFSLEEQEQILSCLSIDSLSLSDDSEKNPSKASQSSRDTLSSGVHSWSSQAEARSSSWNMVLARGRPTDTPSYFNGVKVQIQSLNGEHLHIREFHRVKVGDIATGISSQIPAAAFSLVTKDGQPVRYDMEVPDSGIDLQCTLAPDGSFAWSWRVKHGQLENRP

IC50 [1] [nM] | IC50 [2] [nM] | SMILES
1.2 | 58 | CN1CC[C@@](O)(C#Cc2cccc(-c3ccc4ncnc(N5CCC5)c4n3)c2)C1=O [Example 26, (R)-3-((3-(4-(Azetidin-1-yl)pyrido[3,2-d]pyrimidin-6-yl)phenyl)ethynyl)-3-hydroxy-1-methylpyrrolidin-2-one]
≤ 0.5 | 4.5 | CN1CC[C@@](O)(C#Cc2cccc(-c3cc(C4CC4)c4ncnc(N)c4n3)c2)C1=O [Example 302, (R)-3-((3-(4-Amino-8-cyclopropylpyrido[3,2-d]pyrimidin-6-yl)phenyl)ethynyl)-3-hydroxy-1-methylpyrrolidin-2-one]
0.9 | 9.5 | CN1CC[C@@](O)(C#Cc2cccc(-c3cc(N4CCC4)c4ncnc(N)c4n3)c2)C1=O [Example 316, (R)-3-[2-[3-[4-Amino-8-(azetidin-1-yl)pyrido[3,2-d]pyrimidin-6-yl]phenyl]ethynyl]-3-hydroxy-1-methyl-pyrrolidin-2-one]
– | 3.3 | [2H]c1nc(N)c2nc(-c3cccc(C#C[C@]4(O)CCN(C)C4=O)c3)ccc2n1 [Example 8, (R)-3-((3-(4-Aminopyrido[3,2-d]pyrimidin-6-yl-2-d)phenyl)ethynyl)-3-hydroxy-1-methylpyrrolidin-2-one]
– | 4350 | [2H]c1nc(N)c2nc(-c3cccc(C#C[C@@]4(O)C[C@H](C)N(C)C4=O)c3)ccc2n1 [Example 263, (3S,5S)-3-((3-(4-Aminopyrido[3,2-d]pyrimidin-6-yl-2-d)phenyl)ethynyl)-3-hydroxy-1,5-dimethylpyrrolidin-2-one]
– | 670 | [2H]c1nc(N)c2nc(-c3cccc(C#C[C@@]4(O)CCN(C)C4=O)c3)ccc2n1 [Example 9, (S)-3-((3-(4-Aminopyrido[3,2-d]pyrimidin-6-yl-2-d)phenyl)ethynyl)-3-hydroxy-1-methylpyrrolidin-2-one]
– | 65 | [2H]c1nc(NC(C)=O)c2nc(-c3cccc(C#C[C@]4(O)CCN(C)C4=O)c3)ccc2n1 [Example 259, (R)—N-(6-(3-((3-Hydroxy-1-methyl-2-oxopyrrolidin-3-yl)ethynyl)phenyl)pyrido[3,2-d]pyrimidin-4-yl-2-d)acetamide]
43 | – | Cc1cc2cnc(-c3cccc(C#C[C@]4(O)CCN(C)C4=O)c3)nc2c(N)n1 [Example 44, (R)-3-((3-(8-Amino-6-methylpyrido[3,4-d]pyrimidin-2-yl)phenyl)ethynyl)-3-hydroxy-1-methylpyrrolidin-2-one]
– | > 5000 | [2H]c1nc(N)c2nc(-c3cccc(C#C[C@@]4(O)CCCN(C)C4=O)c3)ccc2n1 [Example 199, (S)-3-((3-(4-Aminopyrido[3,2-d]pyrimidin-6-yl-2-d)phenyl)ethynyl)-3-hydroxy-1-methylpiperidin-2-one]
– | > 5000 | CN1CC[C@@](O)(C#Cc2cccc(-c3ccc4ncncc4n3)c2)C1=O [Example 223]
– | 350 | COC1CN(c2ncnc3ccc(-c4cccc(C#C[C@]5(O)CCN(C)C5=O)c4)nc23)C1 [Example 230, (R)-3-Hydroxy-3-((3-(4-(3-methoxyazetidin-1-yl)pyrido[3,2-d]pyrimidin-6-yl)phenyl)ethynyl)-1-methylpyrrolidin-2-one]
0.6 | – | CN1CC[C@@](O)(C#Cc2cccc(-c3cc(NCC(F)(F)F)c4ncnc(N)c4n3)c2)C1=O [Example 317, (R)-3-((3-(4-Amino-8-((2,2,2-trifluoroethyl)amino)pyrido[3,2-d]pyrimidin-6-yl)phenyl)ethynyl)-3-hydroxy-1-methylpyrrolidin-2-one]
– | 660 | [2H]c1nc(N)c2nc(-c3cccc(C#C[C@@]4(O)C[C@@H](C)N(C)C4=O)c3)ccc2n1 [Example 264, (3S,5R)-3-((3-(4-Aminopyrido[3,2-d]pyrimidin-6-yl-2-d)phenyl)ethynyl)-3-hydroxy-1,5-dimethylpyrrolidin-2-one]
1 | – | Cc1ccc(C#C[C@@]2(O)C(=O)N(C)[C@@H]3C[C@@H]32)cc1-c1nc2c(N)ncnc2s1 [Example 318, (1R,4R,5S)-4-((3-(7-Aminothiazolo[5,4-d]pyrimidin-2-yl)-4-methylphenyl)ethynyl)-4-hydroxy-2-methyl-2-azabicyclo[3.1.0]hexan-3-one]
2030 | – | Nc1nccc2cnc(-c3cccc(C#CC4(O)CCc5cccnc54)c3)nc12 (stereo in doubt) [Example 46, (S)-7-[2-[3-(8-Aminopyrido[3,4-d]pyrimidin-2-yl)phenyl]ethynyl]-5,6-dihydrocyclopenta[b]pyridin-7-ol]
1.5 | – | Cc1ccc(C#C[C@]2(O)C[C@@H](C)N(C)C2=O)cc1-c1nc2c(N)ncnc2s1 [Example 319, (3R,5R)-3-((3-(7-Aminothiazolo[5,4-d]pyrimidin-2-yl)-4-methylphenyl)ethynyl)-3-hydroxy-1,5-dimethylpyrrolidin-2-one]
– | 47 | Cc1cc(C#C[C@]2(O)CCN(C)C2=O)cc(-c2nc3c(N)ncnc3s2)c1 [Example 153, (R)-3-((3-(7-Aminothiazolo[5,4-d]pyrimidin-2-yl)-5-methylphenyl)ethynyl)-3-hydroxy-1-methylpyrrolidin-2-one]
– | 73 | CC(=O)Nc1ncnc2ccc(-c3cccc(C#C[C@]4(O)CCN(C)C4=O)c3)nc12 [Example 238, (R)—N-(6-(3-((3-Hydroxy-1-methyl-2-oxopyrrolidin-3-yl)ethynyl)phenyl)pyrido[3,2-d]pyrimidin-4-yl)acetamide]
– | > 5000 | CN1CC[C@@](O)(C#Cc2cccc(-c3nc4c(N)nccc4[nH]3)c2)C1=O [Example 59, (R)-3-[2-[3-(4-Amino-1H-imidazo[4,5-c]pyridin-2-yl)phenyl]ethynyl]-3-hydroxy-1-methyl-pyrrolidin-2-one]
1.4 | – | CN1CC[C@@](O)(C#Cc2cccc(-c3cc(C(F)F)c4ncnc(N)c4n3)c2)C1=O [Example 289, (R)-3-((3-(4-Amino-8-(difluoromethyl)pyrido[3,2-d]pyrimidin-6-yl)phenyl)ethynyl)-3-hydroxy-1-methylpyrrolidin-2-one]
– | 220 | [2H]c1nc(N)c2nc(-c3cccc(C#C[C@]4(O)C[C@H](C)N(C)C4=O)c3)ccc2n1 [Example 262, (3R,5S)-3-((3-(4-Aminopyrido[3,2-d]pyrimidin-6-yl-2-d)phenyl)ethynyl)-3-hydroxy-1,5-dimethylpyrrolidin-2-one]
5 | – | CN1CC[C@@](O)(C#Cc2cccc(-c3cc(N4CC(C(F)(F)F)C4)c4ncnc(N)c4n3)c2)C1=O [Example 315, (R)-3-[2-[3-[4-Amino-8-[3-(trifluoromethyl)azetidin-1-yl]pyrido[3,2-d]pyrimidin-6-yl]phenyl]ethynyl]-3-hydroxy-1-methyl-pyrrolidin-2-one]
– | 3850 | [2H]c1nc(NS(C)(=O)=O)c2nc(-c3cccc(C#C[C@]4(O)CCN(C)C4=O)c3)ccc2n1 [Example 269, (R)—N-(6-(3-((3-Hydroxy-1-methyl-2-oxopyrrolidin-3-yl)ethynyl)phenyl)pyrido[3,2-d]pyrimidin-4-yl-2-d)methanesulfonamide]
– | 7.7 | [2H]c1nc(N)c2nc(-c3cccc(C#C[C@]4(O)C[C@@H](C)N(C)C4=O)c3)ccc2n1 [Example 261, (3R,5R)-3-((3-(4-Aminopyrido[3,2-d]pyrimidin-6-yl-2-d)phenyl)ethynyl)-3-hydroxy-1,5-dimethylpyrrolidin-2-one]
– | 3 | CN1CC[C@@](O)(C#Cc2cccc(-c3ccc4ncnc(N)c4n3)c2)C1=O [Example 12, (R)-3-((3-(4-Aminopyrido[3,2-d]pyrimidin-6-yl)phenyl)ethynyl)-3-hydroxy-1-methylpyrrolidin-2-one]
